This is an account of results in patent US5627193A, “Quinoline-4-carbonylguanidine derivatives, process for producing the same and pharmaceutical preparations containing the compounds” (Mitsui Toatsu Chemicals, Inc., priority 1995, dated 1997).

This assay concerns the target T1, NHE (Na^+ /H^+ exchanger) (Rattus norvegicus, UniProt P26431).
T1 construct: A rat mesenteric artery was isolated; from tissue; host or cells: isolated rat mesenteric artery segments
Kind of assay: NHE inhibitory activity (recovery of the pH in cells after acid load, BCECF, rat mesenteric artery). It is filed as cell-based. Conditions: read-out: Percent NHE inhibition (%); for inhibition at 0.1 µM: Conc. 0.1 μM; for inhibition at 1 µM: Conc. 1 μM. On the procedure: The NHE inhibitory activity was measured by the following method using a pH in cells as an index.
A rat mesenteric artery was isolated, and was loaded with a pH-sensitive dye BCECF. Subsequently, the tissue segments were mounted in a bath of an intracellular ion concentration measurement device (CAF-110, manufactured by Japan Spectral Co., Ltd.). The pH in cells was measured in terms of a ratio of fluorescent intensities through 2-wavelength excitation of 495 nm (pH-sensitive wavelength)/450 nm (pH-non-sensitive wavelength).
The pH in cells was shifted into acid through pretreatment with 20 mM ammonium chloride to activate NHE. At this time, when Na^+ ions were absent in an external solution, the intracellular acidosis was maintained. When Na^+ ions were present in an external solution, the pH in cells was recovered to a control value. This recovery of the pH in cells was ascribable to the activation of NHE. The NHE inhibitory activity of the medication was examined depending on whether or not this recovery was suppressed. The percent NHE inhibition was calculated from a change in pH (ΔpH) measured by the above-mentioned method using the following formula.
Percent NHE inhibition (%)={1-ΔpH (in the presence of a medication)/ΔpH (in the absence of a medication)}×100
This test was conducted by the method of C. D. Foster et al. [Am. J. Physiol., 262, 31, H1651-H1655 (1992)]. For comparison, the test was conducted with respect to guanidinocarbonylisoquinoline derivatives described in JP A 6-211799 (Family: EP590455).

T1 sequence (P26431 whole entry): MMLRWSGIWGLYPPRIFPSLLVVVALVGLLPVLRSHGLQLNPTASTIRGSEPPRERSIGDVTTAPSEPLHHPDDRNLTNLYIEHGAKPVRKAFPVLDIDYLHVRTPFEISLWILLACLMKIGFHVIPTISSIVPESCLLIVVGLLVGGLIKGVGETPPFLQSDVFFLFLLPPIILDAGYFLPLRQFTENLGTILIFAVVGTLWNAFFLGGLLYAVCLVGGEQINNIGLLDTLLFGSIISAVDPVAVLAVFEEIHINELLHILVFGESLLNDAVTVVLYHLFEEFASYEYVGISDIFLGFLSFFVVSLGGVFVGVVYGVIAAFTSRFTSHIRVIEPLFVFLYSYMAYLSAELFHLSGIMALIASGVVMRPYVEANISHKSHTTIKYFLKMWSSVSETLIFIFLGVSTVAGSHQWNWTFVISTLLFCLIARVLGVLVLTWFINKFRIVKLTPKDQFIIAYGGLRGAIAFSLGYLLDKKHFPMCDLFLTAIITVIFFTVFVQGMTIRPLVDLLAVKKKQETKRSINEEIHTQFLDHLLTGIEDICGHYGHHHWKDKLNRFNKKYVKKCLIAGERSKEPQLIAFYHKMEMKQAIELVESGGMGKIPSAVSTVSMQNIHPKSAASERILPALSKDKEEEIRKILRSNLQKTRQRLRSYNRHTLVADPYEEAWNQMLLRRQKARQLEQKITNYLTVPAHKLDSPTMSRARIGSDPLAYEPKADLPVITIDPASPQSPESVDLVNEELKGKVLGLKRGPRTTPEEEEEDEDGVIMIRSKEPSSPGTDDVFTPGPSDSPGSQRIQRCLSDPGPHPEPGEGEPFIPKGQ
T1 sequence (P61023 2-195 partner limits assumed): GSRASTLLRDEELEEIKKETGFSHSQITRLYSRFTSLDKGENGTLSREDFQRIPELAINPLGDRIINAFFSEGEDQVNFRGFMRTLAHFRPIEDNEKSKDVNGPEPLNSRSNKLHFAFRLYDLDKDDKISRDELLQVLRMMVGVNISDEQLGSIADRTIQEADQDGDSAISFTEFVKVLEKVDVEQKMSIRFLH

As to `NC(N)=NC(=O)c1cc(-c2ccccc2)nc2ccccc12` [Example 1, 2-phenylquinoline-4-carbonylguanidine], the inhibition at 0.1 µM worked out at 5.2% and the inhibition at 1 µM was 52.8%.

For `Cc1ccc(-c2cc(C(=O)N=C(N)N)c3ccccc3n2)cc1` [Example 2, 2-(4'-methylphenyl)quinoline-4-carbonylguanidine], the inhibition at 0.1 µM was determined as 10.6% and the inhibition at 1 µM came out at 41.4%.

Take `Cc1cccc(-c2cc(C(=O)N=C(N)N)c3ccccc3n2)c1` [Example 3, 2-(3'-methylphenyl)quinoline-4-carbonylguanidine]: the inhibition at 0.1 µM came out at 21.2% and the inhibition at 1 µM was 59.8%.

In the case of `Cc1ccccc1-c1cc(C(=O)N=C(N)N)c2ccccc2n1` [Example 4, 2-(2'-methylphenyl)quinoline-4-carbonylguanidine], the inhibition at 0.1 µM was 49.2% and the inhibition at 1 µM worked out at 65.6%.

As to `CC(C)c1ccccc1-c1cc(C(=O)N=C(N)N)c2ccccc2n1` [Example 5, 2-(2'-isopropylphenyl)quinoline-4-carbonylguanidine], the inhibition at 0.1 µM was 29.3% and the inhibition at 1 µM stood at 42.3%.

As for `Cc1ccc(-c2cc(C(=O)N=C(N)N)c3ccccc3n2)c(C)c1` [Example 6, 2-(2',4'-dimethylphenyl)quinoline-4-carbonylguanidine], the inhibition at 0.1 µM came out at 36.4% and the inhibition at 1 µM amounted to 55.3%.

For the compound `Cc1ccc(-c2cc(C(=O)N=C(N)N)c3ccccc3n2)cc1C` [Example 7, 2-(3',4'-dimethylphenyl)quinoline-4-carbonylguanidine], the inhibition at 0.1 µM worked out at 33.1% and the inhibition at 1 µM came out at 38.8%.

In the case of `Cc1cc(C)c(-c2cc(C(=O)N=C(N)N)c3ccccc3n2)c(C)c1` [Example 8, 2-(2',4',6'-trimethylphenyl)quinoline-4-carbonylguanidine], the inhibition at 0.1 µM is 23.7% and the inhibition at 1 µM worked out at 36.3%.

For the compound `NC(N)=NC(=O)c1cc(-c2ccccc2C(F)(F)F)nc2ccccc12` [Example 11, 2-(2'-trifluoromethylphenyl)quinoline-4-carbonylguanidine], the inhibition at 0.1 µM was 22.7% and the inhibition at 1 µM is 46.1%.

Take `NC(N)=NC(=O)c1cc(-c2ccc(F)cc2)nc2ccccc12` [Example 13, 2-(4'-fluorophenyl)quinoline-4-carbonylguanidine]: the inhibition at 0.1 µM stood at 14.4% and the inhibition at 1 µM turned out to be 39.8%.

`NC(N)=NC(=O)c1cc(-c2ccccc2Cl)nc2ccccc12` [Example 14, 2-(2'-chlorophenyl)quinoline-4-carbonylguanidine]: the inhibition at 0.1 µM was found to be 28.8% and the inhibition at 1 µM came out at 34.3%.

Regarding `NC(N)=NC(=O)c1cc(-c2cccc([N+](=O)[O-])c2)nc2ccccc12` [Example 19, 2-(3'-nitrophenyl)quinoline-4-carbonylguanidine], the inhibition at 0.1 µM turned out to be 22.3% and the inhibition at 1 µM was determined as 35.6%.

Consider `NC(N)=NC(=O)c1cc(-c2cccc(N)c2)nc2ccccc12` [Example 20, 2-(3'-aminophenyl)quinoline-4-carbonylguanidine], for which the inhibition at 0.1 µM is 36.2% and the inhibition at 1 µM is 42.2%.

Consider `Cc1c(-c2ccccc2)nc2ccccc2c1C(=O)N=C(N)N` [Example 21, 2-phenyl-3-methylquinoline-4-carbonylguanidine], for which the inhibition at 0.1 µM came to 1.5% and the inhibition at 1 µM stood at 45%.

As to `Cc1ccc2nc(-c3ccccc3)cc(C(=O)N=C(N)N)c2c1` [Example 22, 2-phenyl-6-methylquinoline-4-carbonylguanidine], the inhibition at 0.1 µM turned out to be 28.9% and the inhibition at 1 µM came out at 57.9%.

For the compound `Cc1ccc2c(C(=O)N=C(N)N)cc(-c3ccccc3)nc2c1` [Example 23, 2-phenyl-7-methylquinoline-4-carbonylguanidine], the inhibition at 0.1 µM was 2.8% and the inhibition at 1 µM was 49.8%.

In general, inhibition refers to the relative decrease from the control value, in per cent.
